Patent US9200008B2 (ASKA PHARMACEUTICAL CO., LTD., priority 2010, dated 2015)

How the values were obtained:
[1] = test system: Human prostate cancer cell lines (PC-3 cells); experiment: Calculation of IC50 value, cell proliferation inhibitory activity by XTT assay, PC-3 cells (Test Example 2); assay type: cell-based; conditions: 72 hours culture with test substance, read-out: Cell proliferation inhibitory activity (IC50 value calculated from XTT assay), concentration showing 50% inhibitory activity, human prostate cancer cell lines (PC-3)
Procedure: Human prostate cancer cell lines (PC-3 cells) and human fibrosarcoma cell lines (HT1080 cells) were seeded to 96-well microplates so as to provide a density of 1,300 cells/well and that of 3,100 cells/well, respectively. In the presence of 5% CO2 at 37° C., the PC-3 cells and the HT1080 cells were cultured for 48 hours and 24 hours, respectively. Thereafter, each one of test substances was added to each well. As a control of a medical agent, DMSO was added. After the addition, both cells were continuously cultured for 72 hours. Then, an XTT labeling reagent containing 1 mg/mL of sodium 3′-[1-(phenylaminocarbonyl)-3,4-tetrazolium]-bis(4-methoxy-6-nitro)benzenesulfonate hydrate (XTT) and an electronic coupling reagent containing 1.25 mM N-methyl dibenzopyrazine methyl sulfate (PMS) were mixed at a ratio of 50:1 to give an XTT labeling mixture. The XTT labeling mixture was added to each well in an amount of 50 μL per well, and the cells were cultured for another 4 hours. A culture solution containing a test substance was used as a blank, and the absorbencies of a culture solution containing the XTT labeling mixture at a measurement wavelength (450 nm) and a control wavelength (650 nm) were measured by a plate reader. The difference between these absorbencies was evaluated as an activity of dehydrogenase of mitochondria derived from living cells. With respect to the following model formula of sigmoid curve, the convergent solution of each variable (gain, range, base and α) that minimize the residual sum of squares of the difference between these absorbencies and regressive prediction was determined, and then IC50 (=e^α) of each test substance was calculated.
The IC50 values of the compounds represented by the formula (1) or the salts thereof on two cancer cell lines according to the method of Test Example 2 were calculated, and the results are shown in Table A.

[2] = test system: Human prostate cancer cell lines (PC-3 cells); experiment: Measurement of cell death-inducing activity (Test Example 1); assay type: cell-based; conditions: PC-3, 48 h, 48 hours after addition, tested at 10, 1, 0.1, 0.025 and 0.00625 μmol/L, qualitative evaluation of 10 fields, read-out: Concentration showing the cell death-inducing activity (cell death-inducing rate not less than 40%)
Procedure, shortened: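 PC-3 cells seeded at 1×10^5 cells/well and grown 48 h at 37 °C, 5% CO2, then exposed to compound at 10, 1, 0.1, 0.025 and 0.00625 μmol/L (DMSO control) for a further 48 h. Activity was called where cell death-inducing rate was not less than 40%.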

Structure (SMILES)	IC50 [1] [nM]	minimal effective concentration [2] [µM]
CCn1cnc2cc(COC(=O)Nc3sc(-c4ccccc4OC)nc3C)ccc21 [Example 9-57]	2.17	0.025
CCn1cc2cc(COC(=O)Nc3sc(-c4ccc(C)cc4OC)nc3C)ccc2n1 [Example 9-155]	6.77	0.025
CCn1cc2cc(NC(=O)OCc3sc(-c4ccc(C)cc4C)nc3C)ccc2n1 [Example 13-53]	6.35	0.1
CCn1cnc2cc(NC(=O)OCc3cc(-c4ccc(C)cc4OC)nn3C)ccc21 [Example 13-90]	0.43	0.00625
Cc1ccc(-c2nc(C)c(COC(=O)Nc3ccc4ncsc4c3)s2)c(C)c1 [Example 41-1, Benzothiazol-6-ylcarbamic acid 2-(2,4-dimethylphenyl)-4-methylthiazol-5-ylmethyl ester]		10
Cc1ccc(-c2nc(C)c(COC(=O)Nc3ccc4sc(C)nc4c3)s2)c(C)c1 [Example 42-1, (2-Methylbenzothiazol-5-yl)carbamic acid 2-(2,4-dimethylphenyl)-4-methylthiazol-5-ylmethyl ester]		1
Cc1nc2cc(NC(=O)OCc3sc(-c4ccc(Cl)cc4C)nc3C)ccc2s1 [Example 42-2, (2-Methylbenzothiazol-5-yl)carbamic acid 2-(4-chloro-2-methylphenyl)-4-methylthiazol-5-ylmethyl ester]		1
Cc1cc(F)ccc1-c1nc(C)c(COC(=O)Nc2ccc3c(c2)nc2n3CCSC2)s1 [Example 43-1, (3,4-Dihydro-1H-2-thia-4a,9-diazafluoren-7-yl)carbamic acid 2-(4-fluoro-2-methylphenyl)-4-methylthiazol-5-ylmethyl ester]		0.1
Cc1cc(Cl)ccc1-c1nc(C)c(COC(=O)Nc2ccc3c(c2)nc2n3CCSC2)s1 [Example 43-2]		0.025
Cc1ccc(-c2nc(C)c(COC(=O)Nc3ccc4c(c3)nc3n4CCSC3)s2)c(C)c1 [Example 43-3]		0.1
CCc1nc(-c2ccc(F)cc2C)sc1COC(=O)Nc1ccc2c(c1)nc1n2CCSC1 [Example 43-4]		1
COc1cc(C)ccc1-c1cc(NC(=O)OCc2ccc3c(c2)nc2n3CCOC2)sn1 [Example 45-1]		10
COc1cc(Cl)ccc1-c1cc(NC(=O)OCc2ccc3c(c2)ncn3C)sn1 [Example 45-2]		1
CCn1cnc2cc(COC(=O)Nc3cc(-c4ccc(Cl)cc4OC)ns3)ccc21 [Example 45-3]		10
CCn1ncc2cc(COC(=O)Nc3cc(-c4ccc(Cl)cc4OC)ns3)ccc21 [Example 45-4]		10
COc1cc(Cl)ccc1-c1nscc1NC(=O)OCc1ccc2c(c1)ncn2C [Example 45-5]		0.1
COc1ccccc1-c1nscc1NC(=O)OCc1ccc2c(c1)ncn2C [Example 45-6]		1
CCn1ncc2cc(COC(=O)Nc3csnc3-c3ccc(Cl)cc3OC)ccc21 [Example 45-7]		0.1
Cn1cnc2cc(NC(=O)OCc3cc(-c4ccc(Cl)cc4Cl)ns3)ccc21 [Example 47-1]		0.1

Structure (SMILES)	IC50 [1] [nM]	minimal effective concentration [2] [µM]
COc1ccccc1-c1cc(COC(=O)Nc2ccc3c(c2)ncn3C)sn1 [Example 47-2]		1
COc1cc(C)ccc1-c1cc(COC(=O)Nc2ccc3c(c2)ncn3C)sn1 [Example 47-3]		0.00625
COc1cc(Cl)ccc1-c1cc(COC(=O)Nc2ccc3c(c2)ncn3C)sn1 [Example 47-4]		0.00625
COc1ccccc1-c1cc(COC(=O)Nc2ccc3c(c2)nc2n3CCCC2)sn1 [Example 47-5]		0.1
COc1cc(C)ccc1-c1cc(COC(=O)Nc2ccc3c(c2)nc2n3CCCC2)sn1 [Example 47-6]		0.025
COc1cc(Cl)ccc1-c1cc(COC(=O)Nc2ccc3c(c2)nc2n3CCCC2)sn1 [Example 47-7]		0.00625
O=C(Nc1ccc2c(c1)nc1n2CCCC1)OCc1cc(-c2ccc(Cl)cc2Cl)ns1 [Example 47-8]		1
COc1cc(Cl)ccc1-c1cc(COC(=O)Nc2ccc3c(c2)nc2n3CCOC2)sn1 [Example 47-9]		0.00625
CCn1cnc2cc(NC(=O)OCc3cc(-c4ccccc4OC)ns3)ccc21 [Example 47-10]		10
CCn1cnc2cc(NC(=O)OCc3cc(-c4ccc(Cl)cc4OC)ns3)ccc21 [Example 47-11]		0.1
CCn1cnc2cc(NC(=O)OCc3cc(-c4ccc(Cl)cc4Cl)ns3)ccc21 [Example 47-12]		10
COc1cc(Cl)ccc1-c1cc(C(=O)N/N=C/c2ccc3c(c2)ncn3C)sn1 [Example 49-1]		0.025
COc1ccccc1-c1cc(C(=O)N/N=C/c2ccc3c(c2)ncn3C)sn1 [Example 49-2, 3-(2-Methoxyphenyl)isothiazole-5-carboxylic acid[1-(1-methyl-1H-benzimidazol-5-yl)methylidene]hydrazide]		0.025
O=C(N/N=C/c1ccc2c(c1)nc1n2CCOC1)c1cc(-c2ccc(Cl)cc2Cl)ns1 [Example 49-3]		10
COc1ccccc1-c1cc(C(=O)N/N=C/c2ccc3c(c2)nc2n3CCOC2)sn1 [Example 49-4, 3-(2-Methoxyphenyl)isothiazole-5-carboxylic acid[1-(3,4-dihydro-1H-2-oxa-4a,9-diazafluoren-7-yl)methylidene]hydrazide]		10
COc1cc(Cl)ccc1-c1cc(C(=O)N/N=C/c2ccc3c(c2)nc2n3CCOC2)sn1 [Example 49-5, 3-(4-Chloro-2-methoxyphenyl)isothiazole-5-carboxylic acid[1-(3,4-dihydro-1H-2-oxa-4a,9-diaza-fluoren-7-yl)methylidene]hydrazide]		1
CCn1ncc2cc(/C=N/NC(=O)c3cc(-c4ccccc4OC)ns3)ccc21 [Example 49-7, 3-(2-Methoxyphenyl)isothiazole-5-carboxylic acid[1-(1-ethyl-1H-indazol-5-yl)methylidene]hydrazide]		1
CCn1ncc2cc(/C=N/NC(=O)c3cc(-c4ccc(Cl)cc4OC)ns3)ccc21 [Example 49-8]		1
